According to US20060205771A1, “Caspase inhibitors as anticancer agents” (priority 2002, published 2006):
*: point of attachment. Cbz = O=C(OCc1ccccc1)*; CH2F = FC*

How the values were obtained:
[1] = system: normal astrocytes; assay: BCNU cytotoxicity on normal astrocytes; type: cell-based; settings: agent alone, FIG. 8
Protocol: (§1) A variety of cells were exposed to BCNU (also known as carmustine) in the presence of a variety of caspase inhibitors. This alkylating agent is frequently employed in the treatment of cancers of the central nervous system, as well as for treatment of certain lymphomas. The growth of tumor cells and normal human brain precursor cells in chemically-defined medium was assayed under various conditions of alkylating agent and/or caspase inhibitor. Cells were exposed to BCNU at varying dosages, depending upon the outcome of characterization of their sensitivity to BCNU. In general, dosages were employed for which it would be possible to recognize protection from the cytotoxic effects of this alkylating agent, as well as to recognize increased anticancer activity depending on the conditions, of for example, the caspase inhibitor and the activity of this compound.

[2] = system: UT-9 astrocytoma cell line; assay: survival of UT-9 astrocytoma cell line (MTT/DAPI count); type: cell-based; settings: BCNU alone at doses equivalent to those used for 1789 and UT-12, FIG. 5
Protocol: as §1
(§2) After 24 hours, cells were pretreated for 1 hour with caspase inhibitors at a concentration of 20 microM, following exposure to BCNU for 1 hour at concentrations that would kill approximately 50% of the tumor cells, as determined by dose-response experiments. In general, the BCNU concentration applied ranged from 5 microg/ml to 20 microg/ml. Exposure periods were based upon the known clearance rate of BCNU in vivo. […] Percentages of cell survival were normalized to controls. All experiments were performed at least as quadruplicates. […]

[3] = system: NIH3T3 cells; settings: cited from earlier work
[4] = system: UT-12 glioblastoma cell line; assay: survival of UT-12 glioblastoma cell line (MTT/DAPI count); type: cell-based; settings: UT-12 glioma cells; FIG. 6
Protocol: as §1, §2

[5] = system: SW480 colon cancer cells; assay: cisplatin-induced death of SW480 colon cancer cells; type: cell-based; settings: cisplatin alone, FIG. 10
[6] = molecular target: T1, Caspase-1 (Homo sapiens, UniProt P29466); settings: cited from earlier work
T1 sequence (P29466 120-297 limits assumed): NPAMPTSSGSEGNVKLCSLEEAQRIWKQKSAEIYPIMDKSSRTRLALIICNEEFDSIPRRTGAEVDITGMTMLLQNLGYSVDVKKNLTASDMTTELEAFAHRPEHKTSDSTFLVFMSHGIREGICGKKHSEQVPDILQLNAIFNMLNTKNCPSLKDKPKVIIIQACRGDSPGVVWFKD
T1 sequence (P29466 317-404 limits assumed): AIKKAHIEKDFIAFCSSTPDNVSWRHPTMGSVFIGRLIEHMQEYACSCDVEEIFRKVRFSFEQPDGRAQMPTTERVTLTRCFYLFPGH

[7] = system: SW480 (colon adenocarcinoma); settings: SW480 cell line; cited from earlier work
[8] = system: H460 (non-small cell lung cancer); settings: H460 cell line; cited from earlier work
[9] = system: human liver cells; settings: cited from earlier work
[10] = molecular target: T2, caspase-3 (Homo sapiens, UniProt P42574); settings: cited from earlier work
T2 sequence (P42574 29-175 limits assumed): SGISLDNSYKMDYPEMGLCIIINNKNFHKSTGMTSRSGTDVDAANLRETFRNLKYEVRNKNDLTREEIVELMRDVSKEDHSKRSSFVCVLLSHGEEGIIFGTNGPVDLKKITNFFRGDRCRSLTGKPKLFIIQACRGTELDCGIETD
T2 sequence (P42574 176-277 limits assumed): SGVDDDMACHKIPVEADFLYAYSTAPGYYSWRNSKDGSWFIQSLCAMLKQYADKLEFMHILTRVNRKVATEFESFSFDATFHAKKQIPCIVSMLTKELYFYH

O=NN(CCCl)C(=O)NCCCl [BCNU, carmustine]
killing of astrocytes [1]: Astrocytes were killed by BCNU | reduction in cell number [2]: causes only a minor reduction in cell number

COc1ccc(O)c(C(C)(C)C)c1 [BHA, butylated hydroxyanisole]
protection from cytotoxicity of tumor necrosis factor plus caspase-8 inhibition ([3]; pretreatment, Luschen et al.): protected NIH3T3 cells from cytotoxicity induced by the combination of tumor necrosis factor and caspase-8 inhibition

O=C1O[C@H]([C@@H](O)CO)C(O)=C1O [Vitamin C, ascoribic acid]
cell killing by the full combination (caspase 9 and pan-caspase inhibition, BCNU, Vitamin C) [4]: kills all of the UT-12 glioma cells

N.N.[Cl][Pt][Cl] [cisplatin, Cisplatin]
cell death / reduction in number of cells [5]: cisplatin-induced death

Ac-YVAD-CHO
inhibition of Caspase-1 [6]: strong inhibitor of Caspase-1

Cbz-LEHD-CH2F
protection from TRAIL induced death [7]: did not protect | protection from TRAIL induced death [8]: did not protect | protection from TRAIL-associated toxicity [9]: effectively protects liver cells from TRAIL-associated toxicity

TRAIL: tumor necrosis factor-related apoptosis-inducing ligand
induction of cell death [9]: induces cell death in human liver cells by a caspase-9 dependent mechanism

c-DEVD-CHO
inhibition of caspase-3 [10]: inhibits preferentially (but not specifically) caspase-3

zVAD.fmk
sensitization to the action of TNF ([3]; Luschen et al, 2000): Sensitization to the action of TNF
